Reference: paper PMC9817970 (Cancers, 2022)

Tests used:
GIST-T1 cells [1] = assay: Cell viability assay (CellTiter-Glo); type: cell-based; settings: Homo sapiens, GISTT1; 72 h; concentration causing half-maximal growth inhibition
Protocol: GIST-T1 (Cosmobio, Tokyo, Japan, # PMC-GIST01C-COS) cells were cultured in DMEM (Welgene, # LM001-05) and HMC1.2 (Merck, Darmstadt, Germany, # SCC062) cells were cultured in IMDM (Welgene, # LM004-01). Parental Ba/F3 (DSMZ, Braunschweig, Germany, # ACC300) cells were cultured in RPMI (Welgene, # LM011-51) with 10 ng IL-3/mL (Enzo, # ALX-201-821). The culture media was supplemented with 10% fetal bovine serum and 1% penicillin/streptomycin solution. The cells were maintained in a humidified atmosphere containing 5% CO2 at 37 °C.
Cells (GIST-T1: 5.0 × 10^3; HMC1.2: 1 × 10^4) were seeded in 96-well plates. Each compound was treated in each well at 10 dose points of 3-fold serial dilution. After treatment with each compound for 72 h, CellTiter-Glo solution (Promega, # G7572) was added to each well. Anti-proliferation activity was measured the luminescence using a 96-well plate reader (EnVision 2013).

[2] = test system: c-KIT auto-phosphorylation in c-KIT D816V Ba/F3 cells; assay: Western blot of c-KIT signaling; type: cell-based; settings: 10 μM
Protocol: Cells were harvested and lysed using RIPA buffer containing 50 mM HEPES (pH 7.4), 1% Triton X-100, 2 mM EDTA, 150 mM NaCl, 2.5 mM NaF, 5 mM Na3VO4, and protease inhibitor cocktail tablet (Roche, # 11–878-580–001). Proteins were separated and transferred to an NC membrane. The membranes were blocked using 5% skim milk in TBS-T buffer. The p-c-KIT (Tyr703, # 3073), p-AKT (Ser473, # 9271), p-ERK (Thr202/Tyr204, # 8544), ERK (# 4695), p-PLCγ (Tyr783, # 14008), p-STAT3 (Tyr705, # 4074), and PARP (# 9542) antibodies were obtained from Cell Signaling Technologies. The β-actin (# sc-47778) and STAT3 (# sc-482) antibodies were obtained from Santa Cruz Biotechnology. AKT (A18120) antibody was purchased from ABclonal. Each primary antibody was incubated overnight at 4 °C. The secondary antibody (GenDEPOT) was incubated for 1 h at room temperature. Proteins were detected using ECL substrate.

GIST-T1 cells [3] = assay: Apoptosis analysis (annexinV/PI flow cytometry); type: cell-based, human; settings: GIST-T1, 0.05 μM
Protocol: (§1) After compound treatment in GIST-T1 and HMC1.2 cells for 24 h, cells were fixed with 70% cold ethanol. Then, cells were incubated with 50 μg propidium iodide/mL solution (PI, Sigma) containing 1 mg RNase A/mL for 30 min in the dark. Cell cycle arrest was analyzed (BD Accuri), and data were processed using BD Accuri^TM C6 software. For apoptosis analysis, compound treatment for 24–48 h, cells were harvested and stained with annexinV and PI solution. 1 × 10^5 cells were analyzed using flow cytometric analysis.

HMC1.2 cells = assay: Apoptosis analysis (annexinV/PI flow cytometry); type: cell-based, human; settings: HMC1.2, 1 μM, 48 h
Protocol: as §1

GIST-T1 cells [4] = assay: Invasion assay (Transwell); type: cell-based, human; settings: GIST-T1, 0.05 μM, 48 h
Protocol: The cell invasion assay was performed using Transwell membrane filter inserts (Corning Costar Corp., Corning, NY, USA). GIST-T1 cells were then suspended in serum-free DMEM at 2 × 10^6 cells and seeded in the upper chambers. In the lower chambers, the DMEM medium containing 10% FBS was added. After 48 h, the cells migrating down the membrane were stained with crystal violet.

AKT3 = biological target: T1, AKT3 (Homo sapiens, UniProt Q9Y243); assay: Kinase panel profiling; type: biochemical; settings: 10 μM ATP
T1 construct: purchased Reaction Biology Corp
Protocol: (§2) Kinase panel profiling was conducted by Reaction Biology Corp. (San Diego, CA, USA). A single dose (1.0 μM) of 6r was tested against 371 recombinant human kinases in the presence of 10 μM ATP.

BMPR2 = biological target: T2, BMPR2 (Homo sapiens, UniProt Q13873); assay: Kinase panel profiling; type: biochemical; settings: 10 μM ATP
T2 construct: purchased Reaction Biology Corp
Protocol: as §2

CDK16/cyclin Y (PCTAIRE) = biological target: T3, CDK16/cyclin Y (PCTAIRE) (Homo sapiens, UniProt Q00536); assay: Kinase panel profiling; type: biochemical; settings: 10 μM ATP
T3 construct: purchased Reaction Biology Corp
Protocol: as §2

CDK2/cyclin E2 = biological target: T4, CDK2/cyclin E2 (Homo sapiens, UniProt P24941); assay: Kinase panel profiling; type: biochemical; settings: 10 μM ATP
T4 construct: purchased Reaction Biology Corp
Protocol: as §2

CDK7/cyclin H = biological target: T5, CDK7/cyclin H (Homo sapiens, UniProt P50613); assay: Kinase panel profiling; type: biochemical; settings: 10 μM ATP
T5 construct: purchased Reaction Biology Corp
Protocol: as §2

CK2a2 = biological target: T6, CK2a2 (Homo sapiens, UniProt P19784); assay: Kinase panel profiling; type: biochemical; settings: 10 μM ATP
T6 construct: purchased Reaction Biology Corp
Protocol: as §2

CLK3 = biological target: T7, CLK3 (Homo sapiens, UniProt P49761); assay: Kinase panel profiling; type: biochemical; settings: 10 μM ATP
T7 construct: purchased Reaction Biology Corp
Protocol: as §2

DYRK1/DYRK1A = biological target: T8, DYRK1/DYRK1A (Homo sapiens, UniProt Q13627); assay: Kinase panel profiling; type: biochemical; settings: 10 μM ATP
T8 construct: purchased Reaction Biology Corp
Protocol: as §2

EPHA8 = biological target: T9, EPHA8 (Homo sapiens, UniProt P29322); assay: Kinase panel profiling; type: biochemical; settings: 10 μM ATP
T9 construct: purchased Reaction Biology Corp
Protocol: as §2

FGFR2 = biological target: T10, FGFR2 (Homo sapiens, UniProt P21802); assay: Kinase panel profiling; type: biochemical; settings: 10 μM ATP
T10 construct: purchased Reaction Biology Corp
Protocol: as §2

GRK4 = biological target: T11, GRK4 (Homo sapiens, UniProt P32298); assay: Kinase panel profiling; type: biochemical; settings: 10 μM ATP
T11 construct: purchased Reaction Biology Corp
Protocol: as §2

LIMK2 = biological target: T12, LIMK2 (Homo sapiens, UniProt P53671); assay: Kinase panel profiling; type: biochemical; settings: 10 μM ATP
T12 construct: purchased Reaction Biology Corp
Protocol: as §2

MNK2 = biological target: T13, MNK2 (Homo sapiens, UniProt Q9HBH9); assay: Kinase panel profiling; type: biochemical; settings: 10 μM ATP
T13 construct: purchased Reaction Biology Corp
Protocol: as §2

NEK1 = biological target: T14, NEK1 (Homo sapiens, UniProt Q96PY6); assay: Kinase panel profiling; type: biochemical; settings: 10 μM ATP
T14 construct: purchased Reaction Biology Corp
Protocol: as §2

NEK5 = biological target: T15, NEK5 (Homo sapiens, UniProt Q6P3R8); assay: Kinase panel profiling; type: biochemical; settings: 10 μM ATP
T15 construct: purchased Reaction Biology Corp
Protocol: as §2

P38b/MAPK11 = biological target: T16, P38b/MAPK11 (Homo sapiens, UniProt Q15759); assay: Kinase panel profiling; type: biochemical; settings: 10 μM ATP
T16 construct: purchased Reaction Biology Corp
Protocol: as §2

RIPK5 = biological target: T17, RIPK5 (Homo sapiens, UniProt Q6XUX3); assay: Kinase panel profiling; type: biochemical; settings: 10 μM ATP
T17 construct: purchased Reaction Biology Corp
Protocol: as §2

SYK = biological target: T18, SYK (Homo sapiens, UniProt P43405); assay: Kinase panel profiling; type: biochemical; settings: 10 μM ATP
T18 construct: purchased Reaction Biology Corp
Protocol: as §2

TSSK2 = biological target: T19, TSSK2 (Homo sapiens, UniProt Q96PF2); assay: Kinase panel profiling; type: biochemical; settings: 10 μM ATP
T19 construct: purchased Reaction Biology Corp
Protocol: as §2

T6 sequence (P19784 whole entry): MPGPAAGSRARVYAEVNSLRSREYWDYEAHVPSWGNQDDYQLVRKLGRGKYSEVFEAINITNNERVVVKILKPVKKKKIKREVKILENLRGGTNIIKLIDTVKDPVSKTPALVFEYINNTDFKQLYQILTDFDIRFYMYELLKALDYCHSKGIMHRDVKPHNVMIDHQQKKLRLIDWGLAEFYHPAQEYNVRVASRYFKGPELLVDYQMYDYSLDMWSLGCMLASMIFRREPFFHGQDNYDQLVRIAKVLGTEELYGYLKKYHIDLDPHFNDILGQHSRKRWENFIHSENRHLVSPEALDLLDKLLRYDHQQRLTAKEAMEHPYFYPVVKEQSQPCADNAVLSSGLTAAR
T9 sequence (P29322 28-1005): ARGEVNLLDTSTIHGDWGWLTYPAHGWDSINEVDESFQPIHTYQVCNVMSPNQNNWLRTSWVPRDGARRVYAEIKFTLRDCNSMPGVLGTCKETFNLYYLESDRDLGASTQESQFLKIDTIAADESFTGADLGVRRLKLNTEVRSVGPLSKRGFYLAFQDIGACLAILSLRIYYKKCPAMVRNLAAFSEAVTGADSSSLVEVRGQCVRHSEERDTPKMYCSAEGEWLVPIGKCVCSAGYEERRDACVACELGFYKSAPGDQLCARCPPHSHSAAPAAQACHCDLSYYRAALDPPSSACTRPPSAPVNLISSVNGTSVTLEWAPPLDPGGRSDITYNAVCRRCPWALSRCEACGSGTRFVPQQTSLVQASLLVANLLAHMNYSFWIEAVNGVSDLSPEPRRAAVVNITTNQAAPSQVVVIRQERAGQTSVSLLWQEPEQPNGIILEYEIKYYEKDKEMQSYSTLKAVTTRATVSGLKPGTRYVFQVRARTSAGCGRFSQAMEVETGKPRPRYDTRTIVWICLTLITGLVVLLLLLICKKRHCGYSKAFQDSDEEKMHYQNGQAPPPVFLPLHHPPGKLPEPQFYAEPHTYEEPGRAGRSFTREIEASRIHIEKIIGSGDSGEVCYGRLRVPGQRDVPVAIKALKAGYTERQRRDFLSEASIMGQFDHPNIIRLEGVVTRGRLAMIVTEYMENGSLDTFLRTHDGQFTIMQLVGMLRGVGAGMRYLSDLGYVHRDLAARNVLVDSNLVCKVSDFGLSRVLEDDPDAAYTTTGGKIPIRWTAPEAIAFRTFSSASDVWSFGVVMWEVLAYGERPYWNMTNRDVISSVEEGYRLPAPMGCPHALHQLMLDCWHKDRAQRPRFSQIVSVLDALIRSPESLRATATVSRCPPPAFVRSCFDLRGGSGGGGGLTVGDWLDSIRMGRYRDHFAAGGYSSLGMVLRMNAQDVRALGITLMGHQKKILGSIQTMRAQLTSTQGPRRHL
T2 sequence (Q13873 27-1038): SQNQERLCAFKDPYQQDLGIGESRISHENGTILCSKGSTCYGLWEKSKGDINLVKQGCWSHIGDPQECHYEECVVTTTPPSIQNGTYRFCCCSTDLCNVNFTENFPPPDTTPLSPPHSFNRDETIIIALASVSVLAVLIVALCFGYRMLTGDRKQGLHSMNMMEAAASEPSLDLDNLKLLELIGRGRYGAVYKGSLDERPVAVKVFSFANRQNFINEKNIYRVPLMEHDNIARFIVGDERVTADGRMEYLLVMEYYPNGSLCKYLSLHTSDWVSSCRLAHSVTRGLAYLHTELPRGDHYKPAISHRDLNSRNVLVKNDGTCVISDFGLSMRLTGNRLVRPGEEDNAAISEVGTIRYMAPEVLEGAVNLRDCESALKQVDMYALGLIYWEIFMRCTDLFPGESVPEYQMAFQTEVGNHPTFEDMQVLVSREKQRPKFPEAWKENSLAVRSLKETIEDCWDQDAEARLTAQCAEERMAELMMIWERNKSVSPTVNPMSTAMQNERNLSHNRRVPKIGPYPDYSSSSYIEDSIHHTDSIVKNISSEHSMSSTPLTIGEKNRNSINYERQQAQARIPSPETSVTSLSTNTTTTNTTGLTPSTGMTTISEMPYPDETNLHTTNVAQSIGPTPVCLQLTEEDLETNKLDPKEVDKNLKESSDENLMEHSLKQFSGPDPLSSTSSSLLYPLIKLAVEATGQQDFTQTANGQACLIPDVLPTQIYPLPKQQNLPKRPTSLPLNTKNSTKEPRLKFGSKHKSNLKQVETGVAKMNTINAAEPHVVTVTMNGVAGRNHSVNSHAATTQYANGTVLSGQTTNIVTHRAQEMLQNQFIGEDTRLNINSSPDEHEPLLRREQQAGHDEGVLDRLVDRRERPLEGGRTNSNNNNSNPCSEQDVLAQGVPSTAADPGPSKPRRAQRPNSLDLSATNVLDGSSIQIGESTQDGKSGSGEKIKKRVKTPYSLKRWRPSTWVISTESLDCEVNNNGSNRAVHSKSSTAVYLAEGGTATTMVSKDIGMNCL
T16 sequence (Q15759 whole entry): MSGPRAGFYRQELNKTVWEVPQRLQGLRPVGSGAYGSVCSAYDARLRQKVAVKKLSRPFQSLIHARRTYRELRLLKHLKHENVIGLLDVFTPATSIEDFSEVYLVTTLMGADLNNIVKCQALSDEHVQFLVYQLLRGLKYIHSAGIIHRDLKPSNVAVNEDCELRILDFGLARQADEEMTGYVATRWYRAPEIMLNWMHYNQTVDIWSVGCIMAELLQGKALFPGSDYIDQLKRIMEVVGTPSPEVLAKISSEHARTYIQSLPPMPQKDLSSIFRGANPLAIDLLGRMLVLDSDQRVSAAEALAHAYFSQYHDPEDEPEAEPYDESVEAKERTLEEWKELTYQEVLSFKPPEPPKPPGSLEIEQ
T12 sequence (P53671 whole entry): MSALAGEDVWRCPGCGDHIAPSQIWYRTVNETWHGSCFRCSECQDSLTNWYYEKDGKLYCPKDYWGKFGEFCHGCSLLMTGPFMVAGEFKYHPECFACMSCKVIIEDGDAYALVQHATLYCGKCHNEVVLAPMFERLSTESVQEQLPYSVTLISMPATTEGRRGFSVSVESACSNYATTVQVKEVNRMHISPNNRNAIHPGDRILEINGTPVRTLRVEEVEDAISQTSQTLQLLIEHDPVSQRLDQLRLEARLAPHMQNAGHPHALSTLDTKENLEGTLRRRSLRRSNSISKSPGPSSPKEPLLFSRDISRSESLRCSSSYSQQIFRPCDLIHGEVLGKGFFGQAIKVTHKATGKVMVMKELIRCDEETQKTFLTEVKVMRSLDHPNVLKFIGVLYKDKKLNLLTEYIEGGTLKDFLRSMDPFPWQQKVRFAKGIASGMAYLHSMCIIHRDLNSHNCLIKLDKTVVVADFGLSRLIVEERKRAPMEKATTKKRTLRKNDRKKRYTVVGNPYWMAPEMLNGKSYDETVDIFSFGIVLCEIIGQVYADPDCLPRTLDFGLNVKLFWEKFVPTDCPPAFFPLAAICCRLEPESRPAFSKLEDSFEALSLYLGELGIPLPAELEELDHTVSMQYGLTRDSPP
T14 sequence (Q96PY6 whole entry): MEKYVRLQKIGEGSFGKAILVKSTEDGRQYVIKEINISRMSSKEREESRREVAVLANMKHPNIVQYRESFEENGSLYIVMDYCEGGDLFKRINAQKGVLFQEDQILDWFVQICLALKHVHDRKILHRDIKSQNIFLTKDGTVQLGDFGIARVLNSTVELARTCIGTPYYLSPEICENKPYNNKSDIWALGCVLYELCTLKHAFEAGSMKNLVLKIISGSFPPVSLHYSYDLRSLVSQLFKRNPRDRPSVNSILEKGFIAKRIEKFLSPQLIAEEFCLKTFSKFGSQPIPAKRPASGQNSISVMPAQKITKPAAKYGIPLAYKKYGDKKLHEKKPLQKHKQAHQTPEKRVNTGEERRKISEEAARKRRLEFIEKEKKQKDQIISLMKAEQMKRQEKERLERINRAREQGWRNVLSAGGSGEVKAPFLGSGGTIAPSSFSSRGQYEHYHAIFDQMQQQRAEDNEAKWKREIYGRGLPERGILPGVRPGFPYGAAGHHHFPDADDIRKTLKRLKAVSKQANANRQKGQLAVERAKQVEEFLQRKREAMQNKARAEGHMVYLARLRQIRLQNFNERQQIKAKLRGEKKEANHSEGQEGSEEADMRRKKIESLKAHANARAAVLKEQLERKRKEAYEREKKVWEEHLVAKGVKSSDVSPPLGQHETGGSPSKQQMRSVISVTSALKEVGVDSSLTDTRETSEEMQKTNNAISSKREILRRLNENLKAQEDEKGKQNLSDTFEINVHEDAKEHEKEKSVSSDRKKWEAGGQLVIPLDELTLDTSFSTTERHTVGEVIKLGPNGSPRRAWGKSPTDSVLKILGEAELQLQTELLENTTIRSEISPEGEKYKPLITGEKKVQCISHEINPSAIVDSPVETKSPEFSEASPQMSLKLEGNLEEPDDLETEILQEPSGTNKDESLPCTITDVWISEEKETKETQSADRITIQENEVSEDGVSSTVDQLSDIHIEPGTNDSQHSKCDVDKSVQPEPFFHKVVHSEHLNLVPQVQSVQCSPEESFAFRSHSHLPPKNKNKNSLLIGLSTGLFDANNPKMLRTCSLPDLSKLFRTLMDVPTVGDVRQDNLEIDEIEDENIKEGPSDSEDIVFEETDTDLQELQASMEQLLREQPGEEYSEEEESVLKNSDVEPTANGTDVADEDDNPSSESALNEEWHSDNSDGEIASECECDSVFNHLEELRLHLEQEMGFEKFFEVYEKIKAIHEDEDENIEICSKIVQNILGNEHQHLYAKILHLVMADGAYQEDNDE
T19 sequence (Q96PF2 whole entry): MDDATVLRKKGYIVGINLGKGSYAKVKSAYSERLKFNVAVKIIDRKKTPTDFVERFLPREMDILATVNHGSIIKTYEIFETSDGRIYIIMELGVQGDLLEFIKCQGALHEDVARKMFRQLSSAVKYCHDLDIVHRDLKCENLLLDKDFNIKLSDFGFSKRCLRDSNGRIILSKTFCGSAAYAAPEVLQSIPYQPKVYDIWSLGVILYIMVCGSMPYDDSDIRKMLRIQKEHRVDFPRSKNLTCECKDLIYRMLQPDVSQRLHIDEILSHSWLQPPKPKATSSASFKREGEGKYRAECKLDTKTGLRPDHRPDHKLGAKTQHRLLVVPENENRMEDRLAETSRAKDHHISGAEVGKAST

Cc1ccc(NC(=O)c2ccc(CN3CCN(C)CC3)c(C(F)(F)F)c2)cc1-c1cnc2sc(N)nc2c1 [6r]
GI50 (GIST-T1 cells [1]): 10 nM | c-KIT auto-phosphorylation [2]: completely inhibited | production of apoptotic cells (GIST-T1 cells [3]): remarkably induced | production of apoptotic cells (HMC1.2 cells): remarkably induced | invasion capability (GIST-T1 cells [4]): significantly suppressing | inhibition at 1 µM (AKT3): 13.6% | inhibition at 1 µM (BMPR2): 20.6% | inhibition at 1 µM (CDK16/cyclin Y (PCTAIRE)): 0.8% | inhibition at 1 µM (CDK2/cyclin E2): 8.3% | inhibition at 1 µM (CDK7/cyclin H): 3.2% | inhibition at 1 µM (CK2a2): 1% | inhibition at 1 µM (CLK3): 0% | inhibition at 1 µM (DYRK1/DYRK1A): 17.4% | inhibition at 1 µM (EPHA8): 72.3% | inhibition at 1 µM (FGFR2): 43% | inhibition at 1 µM (GRK4): 0% | inhibition at 1 µM (LIMK2): 39.9% | inhibition at 1 µM (MNK2): 0% | inhibition at 1 µM (NEK1): 2.6% | inhibition at 1 µM (NEK5): 0% | inhibition at 1 µM (P38b/MAPK11): 77.7% | inhibition at 1 µM (RIPK5): 4.4% | inhibition at 1 µM (SYK): 3.2% | inhibition at 1 µM (TSSK2): 0%
